In patent publication US20100028395A1, “COMPOSITIONS CONTAINING N-ACETYLGLUCOSAMINE FOR USE IN DERMO-COSMETOLOGY AND AESTHETIC MEDICINE” (ROTTAPHARM S.P.A., priority 2007, published 2010):

Tests used:
[1] = system: Human fibroblasts, Detroit 551 ATCC CCL III; test: Stimulation of elastin synthesis in human fibroblast cultures (Fastin assay); format: cell-based; settings: 24 h
From the text: The scope of the test has been the evaluation and the comparison of the potential stimulation exerted by the test substances on the expression of collagen and elastin in “in vitro” cultures of skin-derived cells, such as fibroblasts. The test in question, even though conducted “in vitro”, can be considered to be predictive of the effects of use of the same substances “in vivo”.
Human fibroblasts, Detroit 551 ATCC CCL III from LGC Promochem (Milan, Italy) have been used.
The substances and concentrations tested have been the same as those already described for stage B of the test on the stimulation of HA expression, i.e.: • CA: 0.66, 1.32, 1.98, 2.64 and 3.3 mg/ml • NAG: 0.5, 1.0, 1.5, 2.0 and 2.5 mg/ml • ASS: 0.16, 0.32, 0.48, 0.64 and 0.80 mg/ml
Cells have been plated out in 96 well plates, 2500 cells/well for 24 hours in cell growth medium ([…], DMEM)+10% foetal calf serum (FCS). Fresh culture medium, enriched with just 5% FCS and containing the substances to be tested, so as to reach the final concentrations desired, has then been added. The samples have been dissolved directly in the culture medium. Each sample has been tested in duplicate and the experiments have been repeated twice. The parameters of interest have been determined after 24 hours on separate plates. Untreated cell cultures have been used as controls.
Elastin has been assayed using a commercially available test (Fastin™, biodye science). The assay is based on the interaction of 5,10,15,20-tetraphenyl-21,23-porphyrin with elastin molecules.
De novo elastin synthesis has been evaluated in the culture medium following treatment with the test substances, following the protocol provided with the test, and by using the calibration curve obtained employing the elastin standard contained in the kit itself.
Evaluation of the effects of the substances tested, at the various concentrations, on fibroblast cultures, has been expressed as the absolute and percent increase or decrease of collagen and elastin expression, with respect to the corresponding control culture, after 24 hours of incubation.
The percentage difference increase or decrease of the effects exerted by CA and NAG, at corresponding concentrations, have then been calculated, with consequent evaluation of their potential statistical significance by means of the test Student “t” test.

[2] = system: Human keratinocyte primary culture: HEKA; test: Stimulation of protein synthesis in human keratinocyte cultures (Lowry method); format: cell-based; settings: keratinocytes
Procedure: The following have been used: • Human fibroblasts, Detroit 551 ATCC CCL III from LGC Promochem (Milan, Italy); • Human keratinocyte primary culture: HEKA, Cascade Biologics, cat. 005-5C. Test substances and concentrations
The substances and concentrations tested are those reported below (on both fibroblasts and keratinocytes): • CA: 0.13, 0.66, 1.32, and 2.64 mg/ml • NAG: 0.1, 0.5, 1.0, and 2.0 mg/ml
The method is identical to that already described for collagen and elastin with the difference that, following the addition of the test substances into the culture medium, the medium has been substituted daily for three days. Each sample has been tested in duplicate and the experiments have been repeated twice. The parameter of interest, i.e. protein synthesis, has been evaluated at 24, 48 and 72 hours on separate plates. Untreated cell cultures have been used as controls.
Protein has been assayed using the Lowry method [Lowry et al. 1951] consisting of a Biuret reduction reaction envisaging the use of Folin-Ciocalteau reagent as chromophore, with a yellow to blue colour change and spectrophotometric measurement at 750 nm [Creighton et al. 1984; Sengupta et al. 1993].
The protein content of the cultures in question has been obtained from comparison of their optical densities with a titration curve made using albumin as a protein standard.
Evaluation of the effect of the substances tested, at the various concentrations and times, on cultures of both fibroblasts and keratinocytes has been expressed in both absolute terms (expressed protein production in mg/ml) and as percentage increase or decrease with respect to control cultures.
The percentage difference increase or decrease of the effects exerted by CA and NAG, over various days and at the corresponding concentrations, have then been calculated, with evaluation of their potential statistical significance by means of the test Student “t” test.

hyaluronate synthetase = settings: plasma membrane fractions of human skin fibroblasts; cited from earlier work

CC(=O)N[C@@H](C=O)[C@@H](O)[C@H](O)[C@H](O)CO [NAG, N-acetyl-2-amino-2 deoxyglucose]
Elastin (μg/ml) (Diff. from baseline) ([1]; NAG 0.50 mg/ml): +11.21 μg/ml
Elastin (μg/ml) (Mean ± st. dev.) ([1]; NAG 0.50 mg/ml): 16.29 ± 0.83 µg/mL
Elastin (%) (Diff. from baseline) ([1]; NAG 1.00 mg/ml): +278.94%
Elastin (μg/ml) (Diff. from baseline) ([1]; NAG 1.00 mg/ml): +14.17 μg/ml
Elastin (μg/ml) (Mean ± st. dev.) ([1]; NAG 1.00 mg/ml): 19.25 ± 0.99 µg/mL
Elastin (%) (Diff. from baseline) ([1]; NAG 1.50 mg/ml): +320.28%
Elastin (μg/ml) (Diff. from baseline) ([1]; NAG 1.50 mg/ml): +16.27 μg/ml
Elastin (μg/ml) (Mean ± st. dev.) ([1]; NAG 1.50 mg/ml): 21.35 ± 1.01 µg/mL
Elastin (%) (Diff. from baseline) ([1]; NAG 2.00 mg/ml): +345.27%
Elastin (μg/ml) (Diff. from baseline) ([1]; NAG 2.00 mg/ml): +17.54 μg/ml
Elastin (μg/ml) (Mean ± st. dev.) ([1]; NAG 2.00 mg/ml): 22.62 ± 1.03 µg/mL
Elastin (μg/ml) (Diff. from baseline) ([1]; NAG 2.50 mg/ml): +17.22 μg/ml
Elastin (μg/ml) (Mean ± st. dev.) ([1]; NAG 2.50 mg/ml): 22.30 ± 1.04 µg/mL
Expr. prot. from NAG % incr. over baseline ([2]; NAG 0.10 mg/ml, 24 hours): −34.7%
Expr. prot. from NAG (mg/ml) - Mean +/− st. dev. ([2]; NAG 0.10 mg/ml, 24 hours): 0.16 ± 0.037 mg/mL
Expr. prot. from NAG (mg/ml) - Mean +/− st. dev. ([2]; NAG 0.10 mg/ml, 48 hours): 0.42 ± 0.15 mg/mL
Expr. prot. from NAG % incr. over baseline ([2]; NAG 0.10 mg/ml, 72 hours): +15.5%
Expr. prot. from NAG (mg/ml) - Mean +/− st. dev. ([2]; NAG 0.10 mg/ml, 72 hours): 0.67 ± 0.09 mg/mL
Expr. prot. from NAG % incr. over baseline ([2]; NAG 0.50 mg/ml, 24 hours): −10.2%
Expr. prot. from NAG (mg/ml) - Mean +/− st. dev. ([2]; NAG 0.50 mg/ml, 24 hours): 0.22 ± 0.039 mg/mL
Expr. prot. from NAG (mg/ml) - Mean +/− st. dev. ([2]; NAG 0.50 mg/ml, 48 hours): 0.40 ± 0.12 mg/mL
Expr. prot. from NAG % incr. over baseline ([2]; NAG 0.50 mg/ml, 72 hours): +10.3%
Expr. prot. from NAG (mg/ml) - Mean +/− st. dev. ([2]; NAG 0.50 mg/ml, 72 hours): 0.64 ± 0.12 mg/mL
Expr. prot. from NAG % incr. over baseline ([2]; NAG 1.00 mg/ml, 24 hours): +44.9%
Expr. prot. from NAG (mg/ml) - Mean +/− st. dev. ([2]; NAG 1.00 mg/ml, 24 hours): 0.36 ± 0.047 mg/mL
Expr. prot. from NAG % incr. over baseline ([2]; NAG 1.00 mg/ml, 48 hours): +41.2%
Expr. prot. from NAG (mg/ml) - Mean +/− st. dev. ([2]; NAG 1.00 mg/ml, 48 hours): 0.48 ± 0.11 mg/mL
Expr. prot. from NAG % incr. over baseline ([2]; NAG 1.00 mg/ml, 72 hours): +20.7%
Expr. prot. from NAG (mg/ml) - Mean +/− st. dev. ([2]; NAG 1.00 mg/ml, 72 hours): 0.70 ± 0.08 mg/mL
Expr. prot. from NAG (mg/ml) - Mean +/− st. dev. ([2]; NAG 2.00 mg/ml, 24 hours): 0.38 ± 0.050 mg/mL
Expr. prot. from NAG % incr. over baseline ([2]; NAG 2.00 mg/ml, 48 hours): +38.2%
Expr. prot. from NAG (mg/ml) - Mean +/− st. dev. ([2]; NAG 2.00 mg/ml, 48 hours): 0.47 ± 0.12 mg/mL
Expr. prot. from NAG % incr. over baseline ([2]; NAG 2.00 mg/ml, 72 hours): +43.1%
Expr. prot. from NAG (mg/ml) - Mean +/− st. dev. ([2]; NAG 2.00 mg/ml, 72 hours): 0.83 ± 0.070 mg/mL
activity of the enzyme hyaluronate synthetase (hyaluronate synthetase): stimulates
